Reference: patent publication US10117430B2, “Malononitrile compounds for controlling animal pests” (BASF SE, priority 2012, dated 2018)

Legend:
Type in all cases: in vivo
[1] = tested on: Boll Weevil (Anthonomus grandis); assay: B.9 Boll weevil microtiter diet test, egg and larval mortality; settings: 120 h, in comparison with untreated controls, egg and larval mortality after 5 days
Procedure: B.9 Boll Weevil (Anthonomus grandis)
(§1) For evaluating control of boll weevil (Anthonomus grandis) the test unit consisted of 24-well-microtiter plates containing an insect diet and 20-30 A. grandis eggs. The compounds were formulated using a solution containing 75% v/v water and 25% v/v DMSO. Different concentrations of formulated compounds were sprayed onto the insect diet at 20 μl, using a custom built micro atomizer, at two replications. After application, microtiter plates were incubated at about 23±1° C. and about 50±5% relative humidity for 5 days. Egg and larval mortality was then visually assessed.

[2] = tested on: Silverleaf Whitefly (Bemisia argentifolii); assay: B.5 Silverleaf whitefly test on sprayed cotton plants; settings: 72 h, in comparison with untreated controls, 3 days after treatment
Procedure: B.5 Silverleaf Whitefly (Bemisia argentifolii)
The active compounds were formulated in cyclohexanone as a 10,000 ppm solution supplied in 1.3 ml ABgene® tubes. These tubes were inserted into an automated electrostatic sprayer equipped with an atomizing nozzle and they served as stock solutions for which lower dilutions were made in 50% acetone:50% water (v/v). A nonionic surfactant (Kinetic®) was included in the solution at a volume of 0.01% (v/v). Cotton plants at the cotyledon stage (one plant per pot) were sprayed by an automated electrostatic plant sprayer equipped with an atomizing spray nozzle. The plants were dried in the sprayer fume hood and then removed from the sprayer. Each pot was placed into a plastic cup and 10 to 12 whitefly adults (approximately 3-5 days old) were introduced. The insects were collected using an aspirator and 0.6 cm, nontoxic Tygon® tubing (R-3603) connected to a barrier pipette tip. The tip, containing the collected insects, was then gently inserted into the soil containing the treated plant, allowing insects to crawl out of the tip to reach the foliage for feeding. Cups were covered with a reusable screened lid (150-micron mesh polyester screen PeCap from Tetko, Inc.). Test plants were maintained in a growth room at 25° C. and 20-40% relative humidity for 3 days, avoiding direct exposure to fluorescent light (24 hour photoperiod) to prevent trapping of heat inside the cup. Mortality was assessed 3 days after treatment, compared to untreated control plants.

[3] = tested on: Tobacco Budworm (Heliothis virescens); assay: B.8 Tobacco budworm test on sprayed cotton plants; settings: 96 h, in comparison with untreated controls, 4 days after treatment
Procedure: B.8 Tobacco Budworm (Heliothis virescens) I
The active compounds were formulated in cyclohexanone as a 10,000 ppm solution supplied in tubes. The tubes were inserted into an automated electrostatic sprayer equipped with an atomizing nozzle and they served as stock solutions for which lower dilutions were made in 50% acetone:50% water (v/v). A nonionic surfactant (Kinetic®) was included in the solution at a volume of 0.01% (v/v). Cotton plants were grown 2 plants to a pot and selected for treatment at the cotyledon stage. Test solutions were sprayed onto the foliage by an automated electrostatic plant sprayer equipped with an atomizing spray nozzle. The plants were dried in the sprayer fume hood and then removed from the sprayer. Each pot was placed into perforated plastic bags with a zip closure. About 10 to 11 budworm larvae were placed into the bag and the bags zipped closed. Test plants were maintained in a growth room at about 25° C. and about 20-40% relative humidity for 4 days, avoiding direct exposure to fluorescent light (24 hour photoperiod) to prevent trapping of heat inside the bags. Mortality and reduced feeding were assessed 4 days after treatment, compared to untreated control plants.

[4] = tested on: Cowpea Aphid (Aphis craccivora); assay: B.1 Cowpea aphid spray test on potted cowpea plants; settings: in comparison with untreated controls, population reduction assessed after 24, 72 and 120 hours
Procedure: B.1 Cowpea Aphid (Aphis craccivora)
The active compounds were formulated in 50:50 (v/v) acetone:water. The test solution was prepared at the day of use. Potted cowpea plants colonized with approximately 100-150 aphids of various stages were sprayed after the pest population has been recorded. Population reduction was assessed after 24, 72, and 120 hours.

[5] = tested on: Mediterranean Fruitfly (Ceratitis capitata); assay: B.2 Mediterranean fruitfly microtiter diet test, egg and larval mortality; settings: 120 h, in comparison with untreated controls, egg and larval mortality after 5 days
Procedure: B.2 Mediterranean Fruitfly (Ceratitis capitata)
as §1, with “Mediterranean fruitfly (Ceratitis capitata)” for “boll weevil (Anthonomus grandis)”, “microtiter” for “24-well-microtiter”, “50-80 C. capitata” for “20-30 A. grandis”, “5” for “20”, “28±1°” for “23±1°”, “80±5%” for “50±5%”

[6] = tested on: Orchid Thrips (Dichromothrips corbetti); assay: B.4 Orchid thrips floral-immersion test; settings: 96 h, in comparison with untreated controls, after 4 days
Procedure: B.4 Orchid Thrips (Dichromothrips Corbetti)
Dichromothrips corbetti adults used for bioassay are obtained from a colony maintained continuously under laboratory conditions. For testing purposes, the test compound is diluted to a concentration of 300 ppm (wt compound: vol diluent) in a 1:1 mixture of acetone:water (vol:vol), plus 0.01% vol/vol Kinetic® surfactant. Thrips potency of each compound is evaluated by using a floral-immersion technique. Plastic petri dishes are used as test arenas. All petals of individual, intact orchid flowers are dipped into treatment solution and allowed to dry. Treated flowers are placed into individual petri dishes along with 10-15 adult thrips. The petri dishes are then covered with lids. All test arenas are held under continuous light and a temperature of about 28° C. for duration of the assay. After 4 days, the numbers of live thrips are counted on each flower, and along inner walls of each petri dish. The level of thrips mortality is extrapolated from pre-treatment thrips numbers.

[7] = tested on: Vetch Aphid (Megoura viciae); assay: B.7 Vetch aphid test on broad bean leaf disks; settings: foliar, 120 h, in comparison with untreated controls, 5 days
Procedure: B.7 Vetch Aphid (Megoura viciae)
For evaluating control of vetch aphid (Megoura viciae) through contact or systemic means the test unit consisted of 24-well-microtiter plates containing broad bean leaf disks. The compounds were formulated using a solution containing 75% v/v water and 25% v/v DMSO. Different concentrations of formulated compounds were sprayed onto the leaf disks at 2.5 μl, using a custom built micro atomizer, at two replications. After application, the leaf disks were air-dried and 5-8 adult aphids placed on the leaf disks inside the microtiter plate wells. The aphids were then allowed to suck on the treated leaf disks and incubated at about 23±1° C. and about 50±5% relative humidity for 5 days. Aphid mortality and fecundity was then visually assessed.

[8] = tested on: Red Spider Mite (Tetranychus kanzawai); assay: B.10 Red spider mite test on sprayed cowpea beans; settings: in comparison with untreated controls, 72 hours after treatment
Procedure: B.10 Red Spider Mite (Tetranychus kanzawai)
The active compound is dissolved at the desired concentration in a mixture of 1:1 (vol:vol) distilled water:acetone. Add surfactant (Alkamuls® EL 620) at the rate of 0.1% (vol/vol). The test solution is prepared at the day of use. Potted cowpea beans of 7-10 days of age were cleaned with tap water and sprayed with 5 ml of the test solution using air driven hand atomizer. The treated plants were allowed to air dry and afterwards inculated with 20 or more mites by clipping a cassava leaf section with known mite population. Treated plants were placed inside a holding room at about 25-27° C. and about 50-60% relative humidity. Percent mortality was assessed 72 hours after treatment.

[9] = tested on: Yellow Fever Mosquito (Aedes aegypti); assay: whole plant or invertebrate; settings: 48 h, in comparison with untreated controls, larval mortality after 2 days
Procedure: B.12 Yellow Fever Mosquito (Aedes aegypti)
For evaluating control of yellow fever mosquito (Aedes aegypti) the test unit consisted of 96-well-microtiter plates containing 200 μl of tap water per well and 5-15 freshly hatched A. aegypti larvae. The compounds or mixtures were formulated using a solution containing 75% water and 25% DMSO. Different concentrations of formulated compounds or mixtures were sprayed onto the insect diet at 2.5 μl, using a custom built micro atomizer, at two replications. After application, microtiter plates were incubated at 28±1° C., 80±5% relative humidity for 2 days. Larval mortality was then visually assessed.

[10] = tested on: Green Peach Aphid (Myzus persicae); assay: B.3 Green peach aphid systemic test, artificial diet under membrane; settings: 72 h, concentration of the test solution 2500 mg/L, 3 days
Source text: B.3 Green Peach Aphid (Myzus persicae)
For evaluating control of green peach aphid (Myzus persicae) through systemic means the test unit consisted of 96-well-microtiter plates containing liquid artificial diet under an artificial membrane. The compounds were formulated using a solution containing 75% v/v water and 25% v/v DMSO. Different concentrations of formulated compounds were pipetted into the aphid diet, using a custom built pipetter, at two replications. After application, 5-8 adult aphids were placed on the artificial membrane inside the microtiter plate wells. The aphids were then allowed to suck on the treated aphid diet and incubated at about 23±1° C. and about 50±5% relative humidity for 3 days. Aphid mortality and fecundity was then visually assessed.

[11] = tested on: Southern Armyworm (Spodoptera eridania); assay: B.6 Southern armyworm test on sprayed lima bean plants; settings: 96 h, 500 ppm, in comparison with untreated controls, 4 days after treatment
Procedure: B.6 Southern Armyworm (Spodoptera eridania)
The active compounds were formulated in cyclohexanone as a 10,000 ppm solution supplied in 1.3 ml ABgene® tubes. These tubes were inserted into an automated electrostatic sprayer equipped with an atomizing nozzle and they served as stock solutions for which lower dilutions were made in 50% acetone:50% water (v/v). A nonionic surfactant (Kinetic®) was included in the solution at a volume of 0.01% (v/v). Lima bean plants (variety Sieva) were grown 2 plants to a pot and selected for treatment at the 1st true leaf stage. Test solutions were sprayed onto the foliage by an automated electrostatic plant sprayer equipped with an atomizing spray nozzle. The plants were dried in the sprayer fume hood and then removed from the sprayer. Each pot was placed into perforated plastic bags with a zip closure. Ten to 11 armyworm larvae were placed into the bag and the bags zipped closed. Test plants were maintained in a growth room at 25° C. and 20-40% relative humidity for 4 days, avoiding direct exposure to fluorescent light (24 hour photoperiod) to prevent trapping of heat inside the bags. Mortality and reduced feeding were assessed 4 days after treatment, compared to untreated control plants.

[12] = tested on: Rice brown plant hopper (Nilaparvata lugens); assay: B.11 Rice brown plant hopper test on sprayed rice seedlings; settings: in comparison with untreated controls, after 72 hours
Procedure: B.11 Rice brown plant hopper (Nilaparvata lugens)
Rice seedlings were cleaned and washed 24 hours before spraying. The active compounds were formulated in 50:50 acetone:water (vol:vol) and 0.1% vol/vol surfactant (EL 620) was added. Potted rice seedlings were sprayed with 5 ml test solution, air dried, placed in cages and inoculated with 10 adults. Treated rice plants were kept at about 28-29° C. and relative humidity of about 50-60%. Percent mortality was recorded after 72 hours.

[13] = tested on: Green Soldier Stink Bug (Nezara viridula); assay: B.15 Green soldier stink bug test on sprayed soybean pods; settings: 120 h, in comparison with untreated controls, after 5 days
Procedure: B.15 Green Soldier Stink Bug (Nezara viridula)
The active compound is dissolved at the desired concentration in a mixture of 1:1 (vol:vol) distilled water:aceteone. Surfactant (Kinetic HV) is added at a rate of 0.01% (vol/vol). The test solution is prepared at the day of use. Soybean pods were placed in microwavable plastic cups lined with moist filter paper and inoculated with ten 3rd instar N. viridula. Using a hand atomizer, an approximately 2 ml solution is sprayed into each cup. Treated cups were kept at about 28-29° C. and relative humidity of about 50-60%. Percent mortality was recorded after 5 days.

N#CC(C#N)(Cc1cccnc1)c1ccccc1 [II-31]
≥ 75%: mortality at 2500 ppm [1] | mortality at 500 ppm [2] | mortality at 2500 ppm [3]

N#CC(C#N)(Cc1cnc(C(F)(F)F)cn1)c1ccccc1 [II-26]
≥ 75%: mortality at 2500 ppm [1] | mortality at 500 ppm [4] | mortality at 500 ppm [2] | mortality at 2500 ppm [5] | mortality at 2500 ppm [3] | mortality at 500 ppm [6] | mortality at 2500 ppm [7] | mortality at 500 ppm [8] | mortality at 2500 ppm [9]

N#CC(C#N)(Cc1ccc(F)nc1F)c1cc(F)cc(F)c1 [II-52]
≥ 75%: mortality at 2500 ppm [1] | mortality at 2500 ppm [3] | mortality at 500 ppm [6] | mortality at 2500 µg/mL [10]

N#CC(C#N)(Cc1ncc(C(F)(F)F)cn1)c1ccccc1 [II-16]
≥ 75%: mortality at 2500 ppm [1] | mortality at 500 ppm [4] | mortality at 500 ppm [2] | mortality at 500 ppm [6] | mortality at 2500 µg/mL [10] | mortality at 2500 ppm [7] | mortality at 500 ppm [8] | mortality at 500 ppm [11] | mortality at 2500 ppm [9] | mortality at 300 ppm [12]

N#CC(C#N)(Cc1ccc(C(F)(F)F)nc1)c1ccccc1 [II-3]
≥ 75%: mortality at 2500 ppm [1] | mortality at 500 ppm [4] | mortality at 500 ppm [13] | mortality at 2500 ppm [3] | mortality at 500 ppm [6] | mortality at 2500 ppm [7] | mortality at 2500 ppm [9] | mortality at 300 ppm [12]

N#CC(C#N)(Cc1ccc(F)nc1F)c1ccccc1 [II-50]
≥ 75%: mortality at 2500 ppm [3] | mortality at 500 ppm [6] | mortality at 2500 ppm [9]

N#CC(C#N)(Cc1ccc(F)cn1)c1ccccc1 [II-11]
≥ 75%: mortality at 2500 ppm [3] | mortality at 2500 µg/mL [10]
